Reference: ChEMBL document CHEMBL5579824, “Novel Hsp90-Targeting PROTACs: Enhanced synergy with cisplatin in combination therapy of cervical cancer” (Eur J Med Chem, 2024)
Calls of active or inactive are those of the source. The rule behind the calls is not given here.

Tests used:
[1] = biological target: T1, Protein cereblon/Heat shock protein HSP 90-alpha/Heat shock protein HSP 90-beta (Homo sapiens) (UniProt P07900+P08238+Q96SW2); assay: Protac activity at CRBN/Hsp90 in human SiHa cells assessed as decrease in HER2 protein expression level at 0.05 uM incubated for 10 hrs by Western blot analysis; type: cell-based
SiHa [2] = assay: Antiproliferative activity against human SiHa cells assessed as reduction in cell viability incubated for 72 hrs by CCK-8 assay; type: functional, cell-based
[3] = biological target: T1, Protein cereblon/Heat shock protein HSP 90-alpha/Heat shock protein HSP 90-beta (Homo sapiens); assay: Protac activity at CRBN/Hsp90 in human SiHa cells assessed as induction of Hsp90 degradation at 1 uM incubated for 8 to 10 hrs by Western blot analysis; type: cell-based; settings: time 8-10 hrs
[4] = biological target: T1, Protein cereblon/Heat shock protein HSP 90-alpha/Heat shock protein HSP 90-beta (Homo sapiens); assay: Protac activity at CRBN/Hsp90 in human SiHa cells assessed as induction of Hsp90 degradation (causing hook effect) at > 0.075 uM incubated for 10 hrs by Western blot analysis; type: cell-based
[5] = biological target: T1, Protein cereblon/Heat shock protein HSP 90-alpha/Heat shock protein HSP 90-beta (Homo sapiens); assay: Protac activity at CRBN/Hsp90 in human SiHa cells assessed as induction of Hsp90 degradation at 0.05 uM incubated for 2 hrs in presence of SNX-5422 by Western blot analysis; type: cell-based
SiHa [6] = assay: Antiproliferative activity against human SiHa cells assessed as inhibition of clone formation ability incubated for 14 days by crystal violet staining based microscopic analysis; type: functional, cell-based; settings: dose 0.01-1 µM, time 14.0 day
SiHa [7] = assay: Inhibition of cell migration in human SiHa cells at 0.5 uM measured after 48 hrs by microscope based wound healing assay relative to control; type: functional
SiHa [8] = assay: Induction of apoptosis in human SiHa cells assessed as viable cells at 10 uM incubated after 48 hrs by annexin V-FITC/PI staining based flow cytometry (reference value: 90.4 %); type: functional; settings: read-out: Activity
SiHa [9] = assay: Induction of apoptosis in human SiHa cells assessed as viable cells at 1 uM incubated after 48 hrs by annexin V-FITC/PI staining based flow cytometry (reference value: 90.4 %); type: functional; settings: read-out: Activity
SiHa [10] = assay: Induction of apoptosis in human SiHa cells assessed as early apoptotic cells at 1 uM incubated after 48 hrs by annexin V-FITC/PI staining based flow cytometry (reference value: 2.05 %); type: functional
SiHa [11] = assay: Induction of apoptosis in human SiHa cells assessed as necrotic cells at 1 uM incubated after 48 hrs by annexin V-FITC/PI staining based flow cytometry (reference value: 0.08 %); type: functional
SiHa [12] = assay: Induction of cell cycle arrest in human SiHa cells assessed as increase in accumulation of cells at G2/M pahse incubated after 48 hrs by PI staining based flow cytometry; type: functional; settings: dose 0.05-10 µM
SiHa [13] = assay: Induction of cell cycle arrest in human SiHa cells assessed as accumulation of cells at G1 pahse at 10 uM incubated after 48 hrs by PI staining based flow cytometry (reference value: 83.90 %); type: functional
SiHa [14] = assay: Induction of cell cycle arrest in human SiHa cells assessed as accumulation of cells at S pahse at 2.5 uM incubated after 48 hrs by PI staining based flow cytometry (reference value: 8.51 %); type: functional
SiHa [15] = assay: Induction of cell cycle arrest in human SiHa cells assessed as accumulation of cells at S pahse at 1 uM incubated after 48 hrs by PI staining based flow cytometry (reference value: 8.51 %); type: functional
SiHa [16] = assay: Induction of cell cycle arrest in human SiHa cells assessed as accumulation of cells at G1 pahse at 0.05 uM incubated after 48 hrs by PI staining based flow cytometry (reference value: 83.90 %); type: functional
SiHa [17] = assay: Induction of cell cycle arrest in human SiHa cells assessed as accumulation of cells at G2/M pahse at 0.05 uM incubated after 48 hrs by PI staining based flow cytometry (reference value: 7.37 %); type: functional
HeLa = assay: Antiproliferative activity against human HeLa cells assessed as reduction in cell viability incubated for 72 hrs by CCK-8 assay; type: functional, cell-based
SiHa [18] = assay: Synergistic antiproliferative activity against human SiHa cells assessed as combination index at 0.05 uM incubated for 72 hrs in presence of 3.16 uM cisplatin by CCK-8 assay; type: functional
SiHa [19] = assay: Synergistic antiproliferative activity against human SiHa cells assessed as combination index at 0.05 uM incubated for 72 hrs in presence of 1 uM cisplatin by CCK-8 assay; type: functional
SiHa [20] = assay: Synergistic antiproliferative activity against human SiHa cells assessed as combination index at 0.1 uM incubated for 72 hrs in presence of 0.32 uM cisplatin by CCK-8 assay; type: functional
SiHa [21] = assay: Synergistic antiproliferative activity against human SiHa cells assessed as combination index at 0.1 uM incubated for 72 hrs in presence of 0.01 uM cisplatin by CCK-8 assay; type: functional
SiHa [22] = assay: Synergistic antiproliferative activity against human SiHa cells assessed as combination index at 0.5 uM incubated for 72 hrs in presence of 31.62 uM cisplatin by CCK-8 assay; type: functional
SiHa [23] = assay: Synergistic antiproliferative activity against human SiHa cells assessed as combination index at 0.75 uM incubated for 72 hrs in presence of 31.62 uM cisplatin by CCK-8 assay; type: functional
SiHa [24] = assay: Synergistic antiproliferative activity against human SiHa cells assessed as combination index at 0.75 uM incubated for 72 hrs in presence of 0.32 uM cisplatin by CCK-8 assay; type: functional
SiHa [25] = assay: Synergistic antiproliferative activity against human SiHa cells assessed as combination index at 1 uM incubated for 72 hrs in presence of 31.62 uM cisplatin by CCK-8 assay; type: functional
SiHa [26] = assay: Synergistic antiproliferative activity against human SiHa cells assessed as combination index at 1 uM incubated for 72 hrs in presence of 10 uM cisplatin by CCK-8 assay; type: functional
SiHa [27] = assay: Synergistic antiproliferative activity against human SiHa cells assessed as combination index at 1 uM incubated for 72 hrs in presence of 0.1 uM cisplatin by CCK-8 assay; type: functional
SiHa [28] = assay: Synergistic antiproliferative activity against human SiHa cells assessed as combination index at 5 uM incubated for 72 hrs in presence of 0.03 uM cisplatin by CCK-8 assay; type: functional
SiHa [29] = assay: Synergistic antiproliferative activity against human SiHa cells assessed as combination index at 10 uM incubated for 72 hrs in presence of 31.62 uM cisplatin by CCK-8 assay; type: functional
SiHa [30] = assay: Synergistic antiproliferative activity against human SiHa cells assessed as combination index at 10 uM incubated for 72 hrs in presence of 10 uM cisplatin by CCK-8 assay; type: functional
SiHa [31] = assay: Synergistic antiproliferative activity against human SiHa cells assessed as combination index at 10 uM incubated for 72 hrs in presence of 3.16 uM cisplatin by CCK-8 assay; type: functional
SiHa [32] = assay: Synergistic antiproliferative activity against human SiHa cells assessed as combination index at 10 uM incubated for 72 hrs in presence of 0.32 uM cisplatin by CCK-8 assay; type: functional
SiHa [33] = assay: Antitumor activity against human SiHa cells xenografted in BALB/c nude mouse assessed as reduction in Ki67 protein expression at 2 mg/kg, ip by immunohistochemical analysis; type: functional, organism-based
[34] = biological target: T1, Protein cereblon/Heat shock protein HSP 90-alpha/Heat shock protein HSP 90-beta (Homo sapiens); assay: Protac activity at CRBN/Hsp90 in human SiHa cells assessed as decrease in mTOR protein expression level at 0.01 to 1 uM incubated for 10 hrs by Western blot analysis; type: cell-based; settings: dose 0.01-1 µM

Activity [1]: Active | Activity [3]: Active | Activity [4]: inactive | Activity [5]: inactive | IC50 (HeLa): 80 nM | Activity [34]: inactive
SMILES: CC1(C)CC(=O)c2c(C(F)(F)F)nn(-c3ccc(C(N)=O)c(N[C@H]4CC[C@H](OC(=O)CNC(=O)CCCCCCCNc5cccc6c5CN(C5CCC(=O)NC5=O)C6=O)CC4)c3)c2C1 (stereo not given in full)
IC50 (SiHa [2]): 50 nM | inhibition (SiHa [6]): Dose-Dependent Effect | inhibition at 0.5 µM (SiHa [7]): ~100% | viability at 10 µM (SiHa [8]): 51.9% | viability at 1 µM (SiHa [9]): 59% | Activity (SiHa [10]): 16.5% | Activity (SiHa [11]): 0.29% | Activity (SiHa [12]): Dose-Dependent Effect | Activity (SiHa [13]): 62.26% | Activity (SiHa [14]): 21.18% | Activity (SiHa [15]): 13.56% | Activity (SiHa [16]): 78.92% | Activity (SiHa [17]): 9.88% | CI (SiHa [18]): 1.01 | CI (SiHa [19]): 0.74 | CI (SiHa [20]): 0.45 | CI (SiHa [21]): 3.04 | CI (SiHa [22]): 0.26 | CI (SiHa [23]): 0.32 | CI (SiHa [24]): 0.17 | CI (SiHa [25]): 0.27 | CI (SiHa [26]): 0.17 | CI (SiHa [27]): 0.21 | CI (SiHa [28]): 1.02 | CI (SiHa [29]): 0.97 | CI (SiHa [30]): 1.1 | CI (SiHa [31]): 1.45 | CI (SiHa [32]): 1.89 | Activity (SiHa [33]): Active
